Laboratory results reported in PubChem BioAssay (NCI).
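GI50 is the concentration that inhibits growth by half. At the TGI there is no net growth.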

Columns and labels:
Assay in all cases: DTP human tumour cell line panel, 384-well format
[1] = system: NCI-H23 lung
[2] = system: NCI-H322M lung
[3] = system: NCI-H460 NSCLC
[4] = system: NCI-H522 lung
[5] = system: NCI/ADR-RES ovarian
[6] = system: OVCAR-3 ovarian
[7] = system: OVCAR-4 ovarian
[8] = system: OVCAR-5 ovarian
[9] = system: OVCAR-8 ovarian
[10] = system: PC-3 prostate
[11] = system: RPMI-8226 leukemia
[12] = system: RXF 393 renal
[13] = system: SF-268 CNS
[14] = system: SF-295 CNS
[15] = system: SF-539 CNS
[16] = system: SK-MEL-28 melanoma
[17] = system: SK-MEL-5 melanoma
[18] = system: SK-OV-3 ovarian
[19] = system: SN12C renal
[20] = system: SNB-19 CNS
[21] = system: SNB-75 CNS
[22] = system: SR leukemia
[23] = system: T-47D breast
[24] = system: TK-10 renal
[25] = system: U251 glioblastoma
[26] = system: UACC-257 melanoma
[27] = system: UACC-62 melanoma

SMILES: O=C(O)CCCCC(CCSCc1ccccc1)SCc1ccccc1 (centres undefined)
- GI50 [1]: 50.5 µM
- TGI [1]: > 100 µM
- GI50 [2]: 90.6 µM
- TGI [2]: > 100 µM
- GI50 [3]: 34.2 µM
- TGI [3]: > 100 µM
- GI50 [4]: 27.6 µM
- TGI [4]: 73.3 µM
- GI50 [5]: > 100 µM
- TGI [5]: > 100 µM
- GI50 [6]: 45.2 µM
- TGI [6]: > 100 µM
- GI50 [7]: 59 µM
- TGI [7]: > 100 µM
- GI50 [8]: > 100 µM
- TGI [8]: > 100 µM
- GI50 [9]: > 100 µM
- TGI [9]: > 100 µM
- GI50 [10]: 59.6 µM
- TGI [10]: > 100 µM
- GI50 [11]: 33.7 µM
- TGI [11]: 84.4 µM
- GI50 [12]: > 100 µM
- TGI [12]: > 100 µM
- GI50 [13]: > 100 µM
- TGI [13]: > 100 µM
- GI50 [14]: 39.3 µM
- TGI [14]: > 100 µM
- GI50 [15]: > 100 µM
- TGI [15]: > 100 µM
- GI50 [16]: > 100 µM
- TGI [16]: > 100 µM
- GI50 [17]: 33.4 µM
- TGI [17]: > 100 µM
- GI50 [18]: > 100 µM
- TGI [18]: > 100 µM
- GI50 [19]: > 100 µM
- TGI [19]: > 100 µM
- GI50 [20]: 94 µM
- TGI [20]: > 100 µM
- GI50 [21]: > 100 µM
- TGI [21]: > 100 µM
- GI50 [22]: 22.6 µM
- TGI [22]: 67.1 µM
- GI50 [23]: 68.7 µM
- TGI [23]: > 100 µM
- GI50 [24]: 50.2 µM
- TGI [24]: > 100 µM
- GI50 [25]: 45.3 µM
- TGI [25]: > 100 µM
- GI50 [26]: 62.2 µM
- TGI [26]: > 100 µM
- GI50 [27]: 75.7 µM
- TGI [27]: > 100 µM
